Values after ≈ are worked out from the molar mass of the structure shown. Values joined by “and” are separate entries in the source; they are usually repeats but may differ in a detail not shown here. Equal entries are not always repeated. Where two headings read alike, the source gives them in different places.
What was measured:
Experiment in all cases: microbe, parasite or virus in culture
Assay type in all cases: cell-based
[1] = test system: Mtb # 11291; details: for MIC: read-out: MIC Mtb # 11291
[2] = test system: Mycobacterium fortuitum
[3] = test system: Mycobacterium avium
[4] = test system: Mtb # 8673
[5] = test system: Mycobacterium abscessus
[6] = test system: Mtb ATCC 35825
[7] = test system: Mycobacterium intracellulare
[8] = Mycobacterium tuberculosis, mean, n = 2 well replicates
[9] = Mycobacterium tuberculosis, single well replicates
[10] = Experiment 2, three replicate columns

## NCC[C@H](O)C(=O)N[C@@H]1C[C@H](N)[C@@H](O[C@H]2O[C@H](CN)[C@@H](O)[C@H](O)[C@H]2O)[C@H](O)[C@H]1O[C@H]1O[C@H](CO)[C@@H](O)[C@H](N)[C@H]1O [Amikacin, reference compound]
[1]; [8]
  MIC: 3.4 µM and 2 µg/mL
[1]; [9]
  MIC: 3.42 µM and 2 µg/mL
[1]; single well replicates
  MIC Mtb # 11291: 2 mg/L (≈ 3.42 µM)
  MIC: 3.42 µM (≈ 2 µg/mL)
[2]; [10]
  MIC (µg/ml) Mycobacterium fortuitum: 0.25 µg/mL (≈ 0.427 µM)
[2]; Experiment 2, three replicate columns, read-out: MIC (µM) Mycobacterium fortuitum
  MIC: 0.43 µM
[2]; Mycolicibacterium fortuitum, Experiment 2, three replicate columns, read-out: MIC (µM) Mycobacterium fortuitum
  MIC: 0.43 µM
[2]; Mycolicibacterium fortuitum, Experiment 2, three replicate columns, read-out: MIC (µg/ml) Mycobacterium fortuitum
  MIC: 0.25 µg/mL
[2]; Mycolicibacterium fortuitum, mean ± SD, read-out: MIC Mycobacterium fortuitum
  MIC: 0.4 µM
[3]; [10]
  MIC (µg/ml) Mycobacterium avium: 1 µg/mL (≈ 1.71 µM)
[3]; Experiment 2, three replicate columns, read-out: MIC (µM) Mycobacterium avium
  MIC: 1.71 µM
[3]; Mycobacterium avium, Experiment 2, three replicate columns, read-out: MIC (µM) Mycobacterium avium
  MIC: 1.71 µM
[3]; Mycobacterium avium, Experiment 2, three replicate columns, read-out: MIC (µg/ml) Mycobacterium avium
  MIC: 1 µg/mL
[3]; Mycobacterium avium, mean ± SD, read-out: MIC Mycobacterium avium
  MIC: 1.7 µM
[4]; [8]
  MIC: > 219 µM and > 128 µg/mL
[4]; [9]
  MIC: > 219 µM and > 128 µg/mL
[4]; single well replicates
  MIC: >218.58 µM
  MIC Mtb # 8673: >128 mg/L
[5]; [10]
  MIC (µg/ml) Mycobacterium abscessus: 2 µg/mL (≈ 3.42 µM)
[5]; Experiment 2, three replicate columns, read-out: MIC (µM) Mycobacterium abscessus
  MIC: 3.42 µM
[5]; Mycobacteroides abscessus, Experiment 2, three replicate columns, read-out: MIC (µM) Mycobacterium abscessus
  MIC: 3.42 µM
[5]; Mycobacteroides abscessus, Experiment 2, three replicate columns, read-out: MIC (µg/ml) Mycobacterium abscessus
  MIC: 2 µg/mL
[5]; Mycobacteroides abscessus, mean ± SD, read-out: MIC Mycobacterium abscessus
  MIC: 3.4 µM
[6]; Mycobacterium tuberculosis, ATCC35825, mean, n = 2 well replicates
  MIC: 0.1 µM and 0.03 µg/mL
[6]; Mycobacterium tuberculosis, ATCC35825, single well replicates
  MIC: 0.03 µg/mL and 0.05 µM
[6]; single well replicates
  MIC: 0.05 µM (≈ 0.0293 µg/mL)
  MIC Mtb ATCC 35825: 0.03 mg/L (≈ 0.0512 µM)
[7]; [10]
  MIC (µg/ml) Mycobacterium intracellulare: 0.50 µg/mL (≈ 0.854 µM)
[7]; Experiment 2, three replicate columns, read-out: MIC (µM) Mycobacterium intracellulare
  MIC: 0.85 µM
[7]; Mycobacterium intracellulare, Experiment 2, three replicate columns, read-out: MIC (µM) Mycobacterium intracellulare
  MIC: 0.85 µM
[7]; Mycobacterium intracellulare, Experiment 2, three replicate columns, read-out: MIC (µg/ml) Mycobacterium intracellulare
  MIC: 0.5 µg/mL
[7]; Mycobacterium intracellulare, mean ± SD, read-out: MIC Mycobacterium intracellulare
  MIC: 0.9 µM
